According to article PMC4607367, “Gedunin and Azadiradione: Human Pancreatic Alpha-Amylase Inhibiting Limonoids from Neem (Azadirachta indica) as Anti-Diabetic Agents” (PLoS ONE, 2015):

What was measured:
[1] = biological target: T1, Porcine pancreatic α-amylase (PPA) (Sus scrofa, UniProt P00690); assay: Porcine pancreatic α-amylase inhibition assay, chromogenic DNSA method (primary screening); format: biochemical; conditions: starch 1% w/v, pH 6.9, 37°C
T1 construct: purchased SRL, Mumbai, India
T1 sequence (P00690 16-511): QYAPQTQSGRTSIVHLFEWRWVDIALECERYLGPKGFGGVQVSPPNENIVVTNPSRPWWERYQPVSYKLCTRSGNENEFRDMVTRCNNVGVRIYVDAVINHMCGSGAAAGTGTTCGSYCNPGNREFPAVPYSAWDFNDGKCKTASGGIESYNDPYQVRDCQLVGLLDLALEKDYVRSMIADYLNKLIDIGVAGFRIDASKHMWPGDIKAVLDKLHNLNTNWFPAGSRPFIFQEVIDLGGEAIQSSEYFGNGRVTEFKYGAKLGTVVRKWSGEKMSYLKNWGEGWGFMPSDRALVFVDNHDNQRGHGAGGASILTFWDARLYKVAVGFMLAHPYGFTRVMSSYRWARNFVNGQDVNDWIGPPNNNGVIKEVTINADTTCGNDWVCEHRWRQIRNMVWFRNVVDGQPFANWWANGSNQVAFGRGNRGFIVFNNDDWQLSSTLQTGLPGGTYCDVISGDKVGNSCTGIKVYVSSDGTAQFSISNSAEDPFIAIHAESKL
Method: The inhibition assay was performed using the chromogenic DNSA method. PPA was used for preliminary screening of α-amylase inhibitors. […] Moreover a high degree gene sequence similarity (~ 90%) exists between human salivary α-amylase (HSA) and PPA as reported by (Buisson et al 1987). Brayer et al (1995) have reported 97% primary sequence similarity between human salivary and human pancreatic α-amylases and a 70% structural similarity between PPA and HPA [11]. Thus, a high degree of similarity between PPA and HPA allows us to use it as the enzyme for screening inhibitors.
In brief, the total assay mixture consisting of 0.02 M sodium phosphate buffer, pH6.9, (containing 6 mM NaCl), 0.2–0.25 U of PPA and inhibitors (13.8–214.3 μM) in DMSO was incubated at 37°C for 10 min. After pre-incubation, the substrate starch (1%, w/v) solution was added to the reaction mixture and further incubated for 15 min. The control PPA (0.21 U) without any inhibitor represented 100% enzyme activity. One unit of enzyme activity is defined as the amount of enzyme required to release one micromole of maltose from starch/maltopentaose per min under the assay conditions. The other quantifiers calculated were: % Relative enzyme activity = (enzyme activity of test/enzyme activity of control)*100. % inhibition = (100 − % relative enzyme activity).
The IC50 values were determined from plots of percent inhibition versus inhibitor concentration and calculated by logarithmic regression analysis. To eliminate the absorbance produced by the compound, appropriate controls were included. The known PPA/HPA inhibitor acarbose was used as a positive control at a concentration range of 10–50 μM.

[2] = biological target: T2, Human pancreatic α-amylase (HPA) (Homo sapiens, UniProt P04746); assay: Ligand binding to HPA by fluorescence quenching titration, thermodynamic parameters
T2 construct: purchased Sigma Aldrich, USA
T2 sequence (P04746 16-511): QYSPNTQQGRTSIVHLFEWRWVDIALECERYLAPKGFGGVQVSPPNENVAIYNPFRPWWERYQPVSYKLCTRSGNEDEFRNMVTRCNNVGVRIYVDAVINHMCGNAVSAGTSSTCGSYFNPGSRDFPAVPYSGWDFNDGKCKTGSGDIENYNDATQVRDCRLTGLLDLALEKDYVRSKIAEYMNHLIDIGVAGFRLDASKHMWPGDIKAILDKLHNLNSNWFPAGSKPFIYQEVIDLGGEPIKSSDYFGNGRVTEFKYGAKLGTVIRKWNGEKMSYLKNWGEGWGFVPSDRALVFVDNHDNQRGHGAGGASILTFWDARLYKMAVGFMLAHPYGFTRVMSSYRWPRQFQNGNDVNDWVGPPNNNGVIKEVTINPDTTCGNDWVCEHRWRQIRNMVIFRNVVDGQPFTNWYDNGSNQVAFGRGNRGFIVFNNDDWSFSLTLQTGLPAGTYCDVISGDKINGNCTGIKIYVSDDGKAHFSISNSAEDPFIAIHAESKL
Method: Ligand binding studies using fluorescence measurements of HPA were carried as described in our earlier report. […] Non-linear and linear regression analyses were used to analyze the data.
The thermodynamic parameters, association constants (K a), dissociation constant (K d) and Gibbs free energy (ΔG°) of binding for azadiradione and gedunin were determined at various temperatures 25°C to 60°C by fluorescence quenching studies.

[3] = biological target: T2, Human pancreatic α-amylase (HPA); assay: HPA inhibition kinetics (Michaelis-Menten, Lineweaver-Burk, secondary plots); format: biochemical
Method: The mode of inhibition of HPA by the lead inhibitors azadiradione and gedunin were determined using Michaelis-Menton and Lineweaver-Burk equations. Starch (1–5mg ml^-1) and maltopentaose (0.05–0.4mM) were incubated with inhibitors-HPA for 10 and 2.5 min, respectively and the residual enzyme activity determined by DNSA method for starch and Nelson-Somogyi’s method for maltopentaose.The inhibitor constants(K i) were determined on the basis of mode of inhibition.

[4] = biological target: T3, secreted pancreatic α-amylase of AR42J cells (Rattus norvegicus, UniProt P00689); assay: Bioactivity: inhibition of secreted pancreatic α-amylase in dexamethasone-induced AR42J cells, incl. starch load test (DNSA); format: cell-based; conditions: AR42J
T3 construct: host or cells: AR42J rat pancreatic acinar cells, induced with 10 nM dexamethasone
T3 sequence (P00689 16-508): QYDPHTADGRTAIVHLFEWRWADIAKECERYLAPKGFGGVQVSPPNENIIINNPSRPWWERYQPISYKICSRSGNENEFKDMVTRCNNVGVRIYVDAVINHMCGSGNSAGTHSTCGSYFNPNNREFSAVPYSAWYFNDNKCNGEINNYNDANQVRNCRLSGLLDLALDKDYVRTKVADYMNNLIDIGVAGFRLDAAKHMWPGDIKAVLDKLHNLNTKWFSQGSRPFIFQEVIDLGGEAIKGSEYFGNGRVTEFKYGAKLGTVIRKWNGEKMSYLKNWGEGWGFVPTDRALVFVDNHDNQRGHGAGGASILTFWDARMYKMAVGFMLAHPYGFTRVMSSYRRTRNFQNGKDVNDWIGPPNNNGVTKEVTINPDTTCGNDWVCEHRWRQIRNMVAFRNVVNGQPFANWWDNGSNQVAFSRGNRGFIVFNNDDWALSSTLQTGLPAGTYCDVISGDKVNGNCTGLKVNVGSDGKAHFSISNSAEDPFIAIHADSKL
Text: Appropriate medium and DMSO controls were simultaneously set up.

[5] = test system: AR42J rat pancreatic acinar cells; conditions: 24 h, 3.5 μM
Method: (§1) Cells were seeded at 2×10^4 cells well^-1 onto 96 wells culture dish. […] Appropriate medium and DMSO controls were simultaneously set up. […] At the end of 24 h incubation period the culture media was removed from the samples and fresh culture media (100 μl) containing 20 μl of MTT tetrazolium bromide (5 mg ml^-1) added and incubated for 3 h at 37°C. Metabolically active cells reduce MTT to insoluble purple formazan dye crystals, which were dissolved by addition of 300 μl DMSO solution at the end of the incubation period and quantitated at 550 nm [34].

[6] = biological target: T2, Human pancreatic α-amylase (HPA); assay: Human pancreatic α-amylase inhibition and stoichiometry (DNSA); format: biochemical; conditions: percentage inhibition versus molar ratio of HPA and inhibitor; HPA 14.85 μM
Text: The control HPA (0.25 U) without inhibitors represented 100% enzyme activity.

[7] = test system: AR42J rat pancreatic acinar cells; assay: Cytotoxicity in AR42J cell line (MTT); conditions: AR42J; azadiradione 3.5 μM, gedunin 3.3 μM (Fig 3)
Method: as §1

[8] = Cytotoxicity in AR42J cell line (MTT); conditions: rat, AR42J pancreatic acinar cells
Method: as §1

[9] = linear van't Hoff plot, 298–333 K

For CC(=O)O[C@@H]1C[C@H]2C(C)(C)C(=O)C=C[C@]2(C)[C@H]2CC[C@]3(C)C(=CC(=O)[C@H]3c3ccoc3)[C@@]21C [azadiradione], the IC50 [1] was 138 µM, the “-ΔG°” value ([2]; 298 K) was 21.25 k J mol^-1 and the K a ([2]; 298 K) was 4300 M⁻¹. For the same compound, the Kd ([2]; 298 K) was 200 ± 3 µM, the “-ΔG°” value ([2]; 303 K) was 20.88 k J mol^-1 and the K a ([2]; 303 K) was 3900 M⁻¹. For the same compound, the Kd ([2]; 303 K) was 200 ± 1 µM, the “-ΔG°” value ([2]; 308 K) was 20.27 k J mol^-1 and the K a ([2]; 308 K) was 2700 M⁻¹. The Kd ([2]; 308 K) was 300 ± 5 µM, the “-ΔG°” value ([2]; 313 K) was 20.29 k J mol^-1 and the K a ([2]; 313 K) was 2400 M⁻¹. For the same compound, the Kd ([2]; 313 K) was 400 ± 7 µM, the “-ΔG°” value ([2]; 323K) was 19.87 k J mol^-1 and the K a ([2]; 323K) was 1600 M⁻¹. The Kd ([2]; 323K) was 600 ± 2 µM, the “-ΔG°” value ([2]; 333K) was 18.54 k J mol^-1 and the K a ([2]; 333K) was 810 M⁻¹. For the same compound, the Kd ([2]; 333K) was 1200 ± 30 µM, the “Maximal quenching of intrinsic HPA fluorescence” value ([2]; 350 nm, azadiradione 3.9–118 μM, gedunin 2.0–51.86 μM) was 33% and the “Maximum ΔG° of binding” value ([2]; calculated from binding constants, maximal affinity at 298 K) was -5.079 kcal/mol. The “Enthalpy (ΔHvH)” value [2, 9] was -10 kcal/mol, the “Entropy (-ΔS)” value [2, 9] was 70.09 J mol^-1K^-1 and the Ki ([3]; maltopentaose as substrate, secondary plots) was 42.2 µM. For the same compound, the “Apparent K i ′” value ([3]; starch as substrate, secondary plots) was 75.8 µM, the “Mode of HPA inhibition” value ([3]; substrates starch and maltopentaose, Lineweaver-Burk) was “mixed” and the “Secreted amylase inhibition in starch load test” value ([4]; 0.5% (w/v) starch, up to two hours) was 22.9%. The “Amylase inhibition at the cytotoxic IC50 concentration” value ([4]; 24 h, at 11.1, 13.4 and 4.1 μM respectively) was 70.1%, the inhibition at 3.5 µM ([4]; AR-42J, 3.5 μM) was 41.8% and the Cell death [5] was 8.6%. For the same compound, the “Stoichiometry of HPA inactivation” value [6] was 0.66, the “Cell morphology versus controls” value [7] was “no morphological change” and the IC50 at 24 h [8] was 11.1 µM.
